PubChem BioAssay AID732 (Emory University Molecular Libraries Screening Center, 2007)
Calls of active or inactive are those of the source. How the calls were made is not given here.

tested on: in vivo angiogenesis, blood vessel count; assay: reduction of blood vessel formation in vivo – HTS, in vivo study (AID 732); settings: hits give low values;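 tested at 30 µM in the well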;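 further: zebrafish embryos dosed at one day post fertilization; 0% = reference inhibitor and 100% = plate mean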

Question: For `CCN(CC)C(=O)N[C@@H]1C[C@@H]2c3cccc4[nH]cc(c34)C[C@H]2N(C)C1`, which vessel count % control is on record?
Answer: 111% (inactive)

Question: With `Fc1ccc(C(OCCCc2cnc[nH]2)c2ccc(F)cc2)cc1` as the molecule, how does the vessel count % control read?
Answer: 89.2% (inactive)

Question: How did the vessel count % control turn out when `Cc1cc(C(C)(C)C)c(O)c(C)c1CC1=NCCN1` was run?
Answer: 106% (inactive)

Question: For `CC(C)NCC(O)COc1ccc(CCOCC2CC2)cc1` (stereo not given), which vessel count % control is on record?
Answer: 94.3% (inactive)

Question: With `CC(C)Cc1ccc([C@H](C)C(=O)O)cc1` as the molecule, how does the vessel count % control read?
Answer: 66.8% (inactive)

Question: Which vessel count % control does the source give for `C#CCN(C)[C@@H](C)Cc1ccccc1` here?
Answer: 74.7% (inactive)

Question: Which vessel count % control does the source give for `Oc1[nH]c2c(Cl)cc(Cl)cc2c1C1=Nc2ccc(Br)cc2/C1=N\OCCBr` here?
Answer: 121% (inactive)

Question: With `Cc1nc2c(OCc3ccccc3)cccn2c1CC#N` as the molecule, how does the vessel count % control read?
Answer: 120% (inactive)

Question: Which vessel count % control does the source give for `N[C@@H](Cn1cc(I)c(=O)[nH]c1=O)C(=O)O` here?
Answer: 107% (inactive)

Question: With `NCCCCN=C(N)N` as the molecule, how does the vessel count % control read?
Answer: 106% (inactive)

Question: With `NC(=O)c1ncn([C@@H]2O[C@H](CO)[C@@H](O)[C@H]2O)n1` as the molecule, how does the vessel count % control read?
Answer: 63.2% (inactive)

Question: `Oc1ccc(Cn2cc[nH]c2=S)cc1` was tested. Which vessel count % control did it give?
Answer: 92.9% (inactive)

Question: Which vessel count % control does the source give for `COc1cc(C(=O)OCCCN2CCCN(CCCOC(=O)c3cc(OC)c(OC)c(OC)c3)CC2)cc(OC)c1OC` here?
Answer: 116% (inactive)

Question: How did the vessel count % control turn out when `Cn1cnc([N+](=O)[O-])c1Sc1ncnc2nc[nH]c12` was run?
Answer: 81.5% (inactive)

Question: Which vessel count % control does the source give for `NC(N)=NCCC[C@H](N)C(=O)O` here?
Answer: 94.3% (inactive)

Question: How did the vessel count % control turn out when `O=C(O)C1CCNCC1` was run?
Answer: 99.7% (inactive)

Question: `CCNC(=O)N1CCN(CCCC(c2ccc(F)cc2)c2ccc(F)cc2)CC1` was tested. Which vessel count % control did it give?
Answer: 83.9% (inactive)

Question: With `CC(=O)[C@H]1CCC2C3CC[C@H]4C[C@H](O)CC[C@]4(C)C3CC[C@@]21C` (stereo not given in full) as the molecule, how does the vessel count % control read?
Answer: 68.7% (inactive)

Question: With `CC(=O)[C@H]1CC[C@H]2[C@@H]3CCC4=CC(=O)CC[C@]4(C)[C@H]3CC[C@]12C` as the molecule, how does the vessel count % control read?
Answer: 102% (inactive)

Question: For `CC(=O)O[C@H]1C(=O)[C@@]2(C)C([C@H](OC(=O)c3ccccc3)[C@]3(O)C[C@H](OC(=O)[C@H](O)[C@@H](NC(=O)c4ccccc4)c4ccccc4)C(C)=C1C3(C)C)[C@]1(OC(C)=O)CO[C@@H]1C[C@@H]2O` (stereo not given in full), which vessel count % control is on record?
Answer: 82.3% (inactive)

Question: With `C[C@]12C=CC(=O)C=C1CC[C@@H]1C2=CC[C@]2(C)[C@@H](C(=O)CN3CCN(c4cc(N5CCCC5)nc(N5CCCC5)n4)CC3)CC[C@@H]12` as the molecule, how does the vessel count % control read?
Answer: 101% (inactive)

Question: Which vessel count % control does the source give for `CC12CCC3C(CCC4=C(O)C(=O)CCC43C)C1CCC2=O` (stereo not given) here?
Answer: 109% (inactive)

Question: For `O=C(OCCN1CCCCC1)c1c[nH]c2ccccc12`, which vessel count % control is on record?
Answer: 109% (inactive)

Question: `O=C(c1ccc(F)cc1)C1CCN(CCn2c(=O)[nH]c3ccccc3c2=O)CC1` was tested. Which vessel count % control did it give?
Answer: 103% (inactive)

Question: How did the vessel count % control turn out when `C[C@]12CCC(=O)C=C1CC[C@@H]1[C@@H]2CC[C@@]2(C)[C@H]1CC[C@]2(O)C(=O)CO` was run?
Answer: 106% (inactive)

Question: How did the vessel count % control turn out when `CC(C)C[C@H](NC(=O)[C@@H](O)[C@H](N)Cc1ccccc1)C(=O)O` was run?
Answer: 123% (inactive)

Question: `NCCCNCCSP(=O)(O)O` was tested. Which vessel count % control did it give?
Answer: 93.3% (inactive)

Question: With `Nc1c2c(nc3ccccc13)CCCC2O` (stereo not given) as the molecule, how does the vessel count % control read?
Answer: 86.4% (inactive)

Question: Which vessel count % control does the source give for `COC(=O)[C@H]1[C@H]2C[C@H]3c4[nH]c5ccccc5c4CCN3C[C@H]2CC[C@@H]1O` here?
Answer: 110% (inactive)

Question: Which vessel count % control does the source give for `CC[N+](C)(C)Cc1ccccc1Br` here?
Answer: 116% (inactive)

Question: `O=C(O)[C@@H]1CCN1` was tested. Which vessel count % control did it give?
Answer: 84.3% (inactive)

Question: How did the vessel count % control turn out when `CN1C(=O)CC[C@H]1c1cccnc1` was run?
Answer: 110% (inactive)

Question: How did the vessel count % control turn out when `O=C(O)CCC/C=C\C[C@@H]1[C@@H](/C=C/[C@H](O)C2Cc3ccccc3C2)[C@@H](F)C[C@@H]1O` was run?
Answer: 121% (inactive)

Question: For `C#C[C@]1(O)CC[C@H]2[C@@H]3CCC4=Cc5oncc5CC4(C)[C@H]3CCC21C` (stereo not given in full), which vessel count % control is on record?
Answer: 118% (inactive)

Question: For `CCn1cc(C(=O)O)c(=O)c2cc3c(cc21)OCO3`, which vessel count % control is on record?
Answer: 121% (inactive)

Question: Which vessel count % control does the source give for `O=C(O)C1=CCCN(CCON=C(c2ccccc2)c2ccccc2)C1` here?
Answer: 104% (inactive)

Question: `Cc1ccc(C(=O)Nc2ccc(S(=O)(=O)O)c3cc(S(=O)(=O)O)cc(S(=O)(=O)O)c23)cc1NC(=O)c1cccc(NC(=O)Nc2cccc(C(=O)Nc3cc(C(=O)Nc4ccc(S(=O)(=O)O)c5cc(S(=O)(=O)O)cc(S(=O)(=O)O)c45)ccc3C)c2)c1` was tested. Which vessel count % control did it give?
Answer: 119% (inactive)

Question: `CCCCN1CCC(COC(=O)c2cc(Cl)c(N)c3c2OCCO3)CC1` was tested. Which vessel count % control did it give?
Answer: 105% (inactive)

Question: `C[C@@H](NCCc1ccc(O)cc1)[C@@H](O)c1ccc(O)cc1` was tested. Which vessel count % control did it give?
Answer: 92.9% (inactive)

Question: Which vessel count % control does the source give for `NC1CCc2cc(O)c(O)cc2C1` (stereo not given) here?
Answer: 94.8% (inactive)

Question: Which vessel count % control does the source give for `CCOC(=O)c1ncn2c1[C@@H]1CCCN1C(=O)c1cc(OC)ccc1-2` here?
Answer: 102% (inactive)

Question: With `CCCNC(=O)NS(=O)(=O)c1ccc(Cl)cc1` as the molecule, how does the vessel count % control read?
Answer: 124% (inactive)

Question: How did the vessel count % control turn out when `C=CCN1CCc2cc(O)c(O)cc2C(c2ccccc2)C1` (stereo not given) was run?
Answer: 114% (inactive)

Question: `C[N+](C)(C)CC(=O)O` was tested. Which vessel count % control did it give?
Answer: 94% (inactive)

Question: How did the vessel count % control turn out when `CN1CCN(c2nc3cc(C(F)(F)F)ccc3n3cccc23)CC1` was run?
Answer: 100% (inactive)
